Measured values: the supplement of paper PMC11451515

Tests used:
Conditions in all cases: 48 h
P12-Ichikawa [1] = experiment: cell viability relative to DMSO control; higher = less cytotoxic
How it was run: (§1)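 NOMO1 or SEM (500 cells/well) or P12-Ichikawa (1000 cells/well) leukemia cells were adapted for at least four passages in each medium. They were seeded in 1536-well plates (5 μl) and pin-dosed with library compounds in DMSO over an 11-point threefold series, 47 μM to 0.79 nM. CellTiter-Glo One luminescence was read after 48 h at 37°C. Viability is the per-plate percentage relative to DMSO wells, with cell-free wells as background.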

NOMO1 [2] = experiment: as above
How it was run: as §1

SEM cells [3] = experiment: as above
How it was run: as §1

P12-Ichikawa [4] = experiment: AUC of viability dose-response curve (% viability x log10 dose units); higher = less sensitive
How it was run: (§2)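 Leukemia cells adapted to each medium (500 or 1000 cells/well, 1536-well plates) were exposed to library compounds in DMSO for 48 h at 37°C at 11 threefold doses, 47 μM to 0.79 nM. Luminescence by CellTiter-Glo One was normalised per plate to DMSO and cell-free wells, then fitted with a four-parameter log-logistic curve on log10 dose. Curves above full viability were scaled and quality-control failures removed before area under the curve was integrated by trapezoidal rule.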

NOMO1 [5] = experiment: as above
How it was run: as §2

SEM cells [6] = experiment: as above
How it was run: as §2

OCCN(CCO)c1nc(N2CCCCC2)c2nc(N(CCO)CCO)nc(N3CCCCC3)c2n1
cell viability [%]
Conditions | NOMO1 [2] | P12-Ichikawa [1] | SEM cells [3]
HPLM + 10% dialyzed FBS, 0.000781 µM | 128 | 113 | 108
HPLM + 10% dialyzed FBS, 0.00234 µM | 112 | 110 | 111
HPLM + 10% dialyzed FBS, 0.00702 µM | 104 | 118 | 109
HPLM + 10% dialyzed FBS, 0.0211 µM | 128 | 114 | 109
HPLM + 10% dialyzed FBS, 0.0632 µM | 115 | 114 | 118
HPLM + 10% dialyzed FBS, 0.19 µM | 112 | 113 | 119
HPLM + 10% dialyzed FBS, 0.569 µM | 120 | 109 | 117
HPLM + 10% dialyzed FBS, 1.71 µM | 111 | 107 | 114
HPLM + 10% dialyzed FBS, 5.12 µM | 94.5 | 107 | 99.3
HPLM + 10% dialyzed FBS, 15.4 µM | 105 | 98 | 89.9
HPLM + 10% dialyzed FBS, 46.1 µM | 46.4 | 75 | 82.4
RPMI 5 mM glucose + 10% FBS, 0.000781 µM | 120 | 108 | 120
RPMI 5 mM glucose + 10% FBS, 0.00234 µM | 129 | 108 | 111
RPMI 5 mM glucose + 10% FBS, 0.00702 µM | 119 | 113 | 118
RPMI 5 mM glucose + 10% FBS, 0.0211 µM | 107 | 111 | 120
RPMI 5 mM glucose + 10% FBS, 0.0632 µM | 114 | 119 | 127
RPMI 5 mM glucose + 10% FBS, 0.19 µM | 113 | 113 | 124
RPMI 5 mM glucose + 10% FBS, 0.569 µM | 105 | 110 | 111
RPMI 5 mM glucose + 10% FBS, 1.71 µM | 114 | 106 | 104
RPMI 5 mM glucose + 10% FBS, 5.12 µM | 111 | 109 | 111
RPMI 5 mM glucose + 10% FBS, 15.4 µM | 113 | 109 | 103
RPMI 5 mM glucose + 10% FBS, 46.1 µM | 92.4 | 68.2 | 72.4
RPMI 5 mM glucose + 10% dialyzed FBS, 0.000781 µM | 113 | 113 | 128
RPMI 5 mM glucose + 10% dialyzed FBS, 0.00234 µM | 115 | 105 | 120
RPMI 5 mM glucose + 10% dialyzed FBS, 0.00702 µM | 117 | 111 | 113
RPMI 5 mM glucose + 10% dialyzed FBS, 0.0211 µM | 115 | 106 | 104
RPMI 5 mM glucose + 10% dialyzed FBS, 0.0632 µM | 113 | 117 | 121
RPMI 5 mM glucose + 10% dialyzed FBS, 0.19 µM | 114 | 106 | 102
RPMI 5 mM glucose + 10% dialyzed FBS, 0.569 µM | 121 | 105 | 143
RPMI 5 mM glucose + 10% dialyzed FBS, 1.71 µM | 114 | 101 | 131
RPMI 5 mM glucose + 10% dialyzed FBS, 5.12 µM | 114 | 103 | 116
RPMI 5 mM glucose + 10% dialyzed FBS, 15.4 µM | 110 | 101 | 106
RPMI 5 mM glucose + 10% dialyzed FBS, 46.1 µM | 68 | 58.4 | 67.8

AUC of viability dose-response curve
Conditions | NOMO1 [5] | P12-Ichikawa [4] | SEM cells [6]
HPLM + 10% dialyzed FBS | 459 | 459 | 454
RPMI 5 mM glucose + 10% FBS | 438 | 467 | 457
RPMI 5 mM glucose + 10% dialyzed FBS | 465 | 463 | 461

COc1cc2c(Nc3ccc(Cl)c(Cl)c3F)ncnc2cc1OC[C@@H]1C[C@@H]2CN(C)C[C@@H]2C1
cell viability [%]
Conditions | NOMO1 [2] | P12-Ichikawa [1] | SEM cells [3]
HPLM + 10% dialyzed FBS, 0.000781 µM | 97.3 | 95.2 | 88.5
HPLM + 10% dialyzed FBS, 0.00234 µM | 99 | 102 | 78.5
HPLM + 10% dialyzed FBS, 0.00702 µM | 106 | 108 | 86.2
HPLM + 10% dialyzed FBS, 0.0211 µM | 104 | 112 | 91.6
HPLM + 10% dialyzed FBS, 0.0632 µM | 128 | 100 | 94.5
HPLM + 10% dialyzed FBS, 0.19 µM | 127 | 110 | 94.5
HPLM + 10% dialyzed FBS, 0.569 µM | 93.3 | 104 | 94.4
HPLM + 10% dialyzed FBS, 1.71 µM | 101 | 104 | 91.5
HPLM + 10% dialyzed FBS, 5.12 µM | 96.6 | 108 | 87.8
HPLM + 10% dialyzed FBS, 15.4 µM | 45.6 | 81.8 | 40
HPLM + 10% dialyzed FBS, 46.1 µM | 6.66 | 5.15 | 3.92
RPMI 5 mM glucose + 10% FBS, 0.000781 µM | 93.7 | 95.3 | –
RPMI 5 mM glucose + 10% FBS, 0.00234 µM | 104 | 102 | –
RPMI 5 mM glucose + 10% FBS, 0.00702 µM | 115 | 98 | –
RPMI 5 mM glucose + 10% FBS, 0.0211 µM | 106 | 105 | –
RPMI 5 mM glucose + 10% FBS, 0.0632 µM | 103 | 109 | –
RPMI 5 mM glucose + 10% FBS, 0.19 µM | 115 | 112 | –
RPMI 5 mM glucose + 10% FBS, 0.569 µM | 110 | 114 | –
RPMI 5 mM glucose + 10% FBS, 1.71 µM | 109 | 110 | –
RPMI 5 mM glucose + 10% FBS, 5.12 µM | 111 | 119 | –
RPMI 5 mM glucose + 10% FBS, 15.4 µM | 97.8 | 106 | –
RPMI 5 mM glucose + 10% FBS, 46.1 µM | 6.22 | 5.73 | –
RPMI 5 mM glucose + 10% dialyzed FBS, 0.000781 µM | 93.4 | 108 | 88.8
RPMI 5 mM glucose + 10% dialyzed FBS, 0.00234 µM | 116 | 114 | 91.6
RPMI 5 mM glucose + 10% dialyzed FBS, 0.00702 µM | 111 | 108 | 110
RPMI 5 mM glucose + 10% dialyzed FBS, 0.0211 µM | 112 | 113 | 103
RPMI 5 mM glucose + 10% dialyzed FBS, 0.0632 µM | 112 | 117 | 121
RPMI 5 mM glucose + 10% dialyzed FBS, 0.19 µM | 104 | 117 | 91.1
RPMI 5 mM glucose + 10% dialyzed FBS, 0.569 µM | 107 | 115 | 103
RPMI 5 mM glucose + 10% dialyzed FBS, 1.71 µM | 105 | 111 | 95.5
RPMI 5 mM glucose + 10% dialyzed FBS, 5.12 µM | 111 | 113 | 93.7
RPMI 5 mM glucose + 10% dialyzed FBS, 15.4 µM | 92.1 | 89.6 | 74.7
RPMI 5 mM glucose + 10% dialyzed FBS, 46.1 µM | 4.94 | 4.74 | 3.96

AUC of viability dose-response curve
Conditions | NOMO1 [5] | P12-Ichikawa [4] | SEM cells [6]
HPLM + 10% dialyzed FBS | 421 | 444 | 384
RPMI 5 mM glucose + 10% FBS | 450 | 453 | 443
RPMI 5 mM glucose + 10% dialyzed FBS | 447 | 444 | 438
